Assay results from article PMC3445516 (PLoS ONE, 2012).

How the values were obtained:
Experiment in all cases: Ambit kinase profiling, competition binding
ABL1(T315I) = target: T1, ABL1(T315I) (Homo sapiens, UniProt P00519, T315I); details: compound concentration 10 uM, read-out: Percent Competition
T1 construct: purchased Ambit Biosciences (KINOMEscan)
Text: (§1) Supplement pone.0044653.s004.xls, sheet "Compound 122" | column: Percent Competition

KIT(D816V) = target: T2, KIT(D816V) (Homo sapiens, UniProt P10721, D816V); details: compound concentration 10 uM, read-out: Percent Competition
T2 construct: purchased Ambit Biosciences (KINOMEscan)
Text: as §1

RIPK1 = target: T3, RIPK1 (Homo sapiens, UniProt Q13546); details: compound concentration 10 uM, read-out: Percent Competition
T3 construct: purchased Ambit Biosciences (KINOMEscan)
Text: as §1

CDC2L1 = target: T4, CDC2L1 (Homo sapiens, UniProt P21127); details: compound concentration 10 uM, read-out: Percent Competition
T4 construct: purchased Ambit Biosciences (KINOMEscan)
Text: as §1

TYRO3 = target: T5, TYRO3 (Homo sapiens, UniProt Q06418); details: compound concentration 10 uM, read-out: Percent Competition
T5 construct: purchased Ambit Biosciences (KINOMEscan)
Text: as §1

PIP5K1A = target: T6, PIP5K1A (Homo sapiens, UniProt Q99755); details: compound concentration 10 uM, read-out: Percent Competition
T6 construct: purchased Ambit Biosciences (KINOMEscan)
Text: as §1

GCN2(Kin.Dom.2,S808G) = target: T7, GCN2(Kin.Dom.2,S808G) (Homo sapiens, UniProt Q9P2K8, S808G); details: compound concentration 10 uM, read-out: Percent Competition
T7 construct: GCN2(Kin.Dom.2,S808G); purchased Ambit Biosciences (KINOMEscan)
Text: as §1

TIE2 = target: T8, TIE2 (Homo sapiens, UniProt Q02763); details: compound concentration 10 uM, read-out: Percent Competition
T8 construct: purchased Ambit Biosciences (KINOMEscan)
Text: as §1

TNK1 = target: T9, TNK1 (Homo sapiens, UniProt Q13470); details: compound concentration 10 uM, read-out: Percent Competition
T9 construct: purchased Ambit Biosciences (KINOMEscan)
Text: as §1

SRPK2 = target: T10, SRPK2 (Homo sapiens, UniProt P78362); details: compound concentration 10 uM, read-out: Percent Competition
T10 construct: purchased Ambit Biosciences (KINOMEscan)
Text: as §1

AMPK-alpha2 = target: T11, AMPK-alpha2 (Homo sapiens, UniProt P54646); details: compound concentration 10 uM, read-out: Percent Competition
T11 construct: purchased Ambit Biosciences (KINOMEscan)
Text: as §1

TRKC = target: T12, TRKC (Homo sapiens, UniProt Q16288); details: compound concentration 10 uM, read-out: Percent Competition
T12 construct: purchased Ambit Biosciences (KINOMEscan)
Text: as §1

ITK = target: T13, ITK (Homo sapiens, UniProt Q08881); details: compound concentration 10 uM
T13 construct: purchased Ambit Biosciences (KINOMEscan)
Text: as §1

ABL1(F317I) = target: T14, ABL1(F317I) (Homo sapiens, UniProt P00519, F317I); details: compound concentration 10 uM, read-out: Percent Competition
T14 construct: purchased Ambit Biosciences (KINOMEscan)
Text: as §1

BMPR2 = target: T15, BMPR2 (Homo sapiens, UniProt Q13873); details: compound concentration 10 uM
T15 construct: purchased Ambit Biosciences (KINOMEscan)
Text: as §1

TIE1 = target: T16, TIE1 (Homo sapiens, UniProt P35590); details: compound concentration 10 uM, read-out: Percent Competition
T16 construct: purchased Ambit Biosciences (KINOMEscan)
Text: as §1

MST2 = target: T17, MST2 (Homo sapiens, UniProt Q13188); details: compound concentration 10 uM, read-out: Percent Competition
T17 construct: purchased Ambit Biosciences (KINOMEscan)
Text: as §1

DAPK3 = target: T18, DAPK3 (Homo sapiens, UniProt O43293); details: compound concentration 10 uM, read-out: Percent Competition
T18 construct: purchased Ambit Biosciences (KINOMEscan)
Text: as §1

PIP5K2B = target: T19, PIP5K2B (Homo sapiens, UniProt P78356); details: compound concentration 10 uM, read-out: Percent Competition
T19 construct: purchased Ambit Biosciences (KINOMEscan)
Text: as §1

TRKB = target: T20, TRKB (Homo sapiens, UniProt Q16620); details: compound concentration 10 uM, read-out: Percent Competition
T20 construct: purchased Ambit Biosciences (KINOMEscan)
Text: as §1

ZAK = target: T21, ZAK (Homo sapiens, UniProt Q9NYL2); details: compound concentration 10 uM, read-out: Percent Competition
T21 construct: purchased Ambit Biosciences (KINOMEscan)
Text: as §1

FGR = target: T22, FGR (Homo sapiens, UniProt P09769); details: compound concentration 10 uM, read-out: Percent Competition
T22 construct: purchased Ambit Biosciences (KINOMEscan)
Text: as §1

INSR = target: T23, INSR (Homo sapiens, UniProt P06213); details: compound concentration 10 uM, read-out: Percent Competition
T23 construct: purchased Ambit Biosciences (KINOMEscan)
Text: as §1

BRSK2 = target: T24, BRSK2 (Homo sapiens, UniProt Q8IWQ3); details: compound concentration 10 uM, read-out: Percent Competition
T24 construct: purchased Ambit Biosciences (KINOMEscan)
Text: as §1

ANKK1 = target: T25, ANKK1 (Homo sapiens, UniProt Q8NFD2); details: compound concentration 10 uM, read-out: Percent Competition
T25 construct: purchased Ambit Biosciences (KINOMEscan)
Text: as §1

FGFR4 = target: T26, FGFR4 (Homo sapiens, UniProt P22455); details: compound concentration 10 uM, read-out: Percent Competition
T26 construct: purchased Ambit Biosciences (KINOMEscan)
Text: as §1

BIKE = target: T27, BIKE (Homo sapiens, UniProt Q9NSY1); details: compound concentration 10 uM, read-out: Percent Competition
T27 construct: purchased Ambit Biosciences (KINOMEscan)
Text: as §1

MEK1 = target: T28, MEK1 (Homo sapiens, UniProt Q02750); details: compound concentration 10 uM, read-out: Percent Competition
T28 construct: purchased Ambit Biosciences (KINOMEscan)
Text: as §1

PLK1 = target: T29, PLK1 (Homo sapiens, UniProt P53350); details: compound concentration 10 uM, read-out: Percent Competition
T29 construct: purchased Ambit Biosciences (KINOMEscan)
Text: as §1

FAK = target: T30, FAK (Homo sapiens, UniProt Q05397); details: compound concentration 10 uM, read-out: Percent Competition
T30 construct: purchased Ambit Biosciences (KINOMEscan)
Text: as §1

TEC = target: T31, TEC (Homo sapiens, UniProt P42680); details: compound concentration 10 uM, read-out: Percent Competition
T31 construct: purchased Ambit Biosciences (KINOMEscan)
Text: as §1

IKK-beta = target: T32, IKK-beta (Homo sapiens, UniProt O14920); details: compound concentration 10 uM, read-out: Percent Competition
T32 construct: purchased Ambit Biosciences (KINOMEscan)
Text: as §1

ULK3 = target: T33, ULK3 (Homo sapiens, UniProt Q6PHR2); details: compound concentration 10 uM
T33 construct: purchased Ambit Biosciences (KINOMEscan)
Text: as §1

KIT(V559D,T670I) = target: T34, KIT(V559D,T670I) (Homo sapiens, UniProt P10721, T670I/V559D); details: compound concentration 10 uM, read-out: Percent Competition
T34 construct: purchased Ambit Biosciences (KINOMEscan)
Text: as §1

BLK = target: T35, BLK (Homo sapiens, UniProt P51451); details: compound concentration 10 uM, read-out: Percent Competition
T35 construct: purchased Ambit Biosciences (KINOMEscan)
Text: as §1

AAK1 = target: T36, AAK1 (Homo sapiens, UniProt Q2M2I8); details: compound concentration 10 uM, read-out: Percent Competition
T36 construct: purchased Ambit Biosciences (KINOMEscan)
Text: as §1

CSNK2A1 = target: T37, CSNK2A1 (Homo sapiens, UniProt P68400); details: compound concentration 10 uM, read-out: Percent Competition
T37 construct: purchased Ambit Biosciences (KINOMEscan)
Text: as §1

[1] = target: T38, RPS6KA5(Kin.Dom.2-C-terminal) (Homo sapiens, UniProt O75582); details: compound concentration 10 uM, read-out: Percent Competition
T38 construct: RPS6KA5(Kin.Dom.2-C-terminal); purchased Ambit Biosciences (KINOMEscan)
Text: as §1

SgK110 = target: T39, SgK110 (Homo sapiens, UniProt P0C264); details: compound concentration 10 uM, read-out: Percent Competition
T39 construct: purchased Ambit Biosciences (KINOMEscan)
Text: as §1

SgK085 = target: T40, SgK085 (Homo sapiens, UniProt Q86YV6); details: compound concentration 10 uM, read-out: Percent Competition
T40 construct: purchased Ambit Biosciences (KINOMEscan)
Text: as §1

T13 sequence (Q08881 whole entry): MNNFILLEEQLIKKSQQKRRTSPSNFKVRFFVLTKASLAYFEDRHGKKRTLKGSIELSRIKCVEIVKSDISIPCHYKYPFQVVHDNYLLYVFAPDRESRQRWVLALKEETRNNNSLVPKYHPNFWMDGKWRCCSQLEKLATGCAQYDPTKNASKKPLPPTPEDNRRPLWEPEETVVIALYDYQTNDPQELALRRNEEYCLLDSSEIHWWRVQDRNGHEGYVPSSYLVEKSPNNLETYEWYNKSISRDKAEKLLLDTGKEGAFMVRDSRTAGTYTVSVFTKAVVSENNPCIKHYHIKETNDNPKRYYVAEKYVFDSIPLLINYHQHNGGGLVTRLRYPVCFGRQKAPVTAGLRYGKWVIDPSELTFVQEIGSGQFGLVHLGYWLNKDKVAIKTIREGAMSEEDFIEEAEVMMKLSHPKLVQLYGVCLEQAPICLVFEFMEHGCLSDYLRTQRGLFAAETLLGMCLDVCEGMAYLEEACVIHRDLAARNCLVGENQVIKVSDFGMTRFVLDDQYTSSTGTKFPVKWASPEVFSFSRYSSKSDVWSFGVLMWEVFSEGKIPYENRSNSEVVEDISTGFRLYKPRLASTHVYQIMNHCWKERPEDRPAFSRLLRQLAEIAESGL
T33 sequence (Q6PHR2 whole entry): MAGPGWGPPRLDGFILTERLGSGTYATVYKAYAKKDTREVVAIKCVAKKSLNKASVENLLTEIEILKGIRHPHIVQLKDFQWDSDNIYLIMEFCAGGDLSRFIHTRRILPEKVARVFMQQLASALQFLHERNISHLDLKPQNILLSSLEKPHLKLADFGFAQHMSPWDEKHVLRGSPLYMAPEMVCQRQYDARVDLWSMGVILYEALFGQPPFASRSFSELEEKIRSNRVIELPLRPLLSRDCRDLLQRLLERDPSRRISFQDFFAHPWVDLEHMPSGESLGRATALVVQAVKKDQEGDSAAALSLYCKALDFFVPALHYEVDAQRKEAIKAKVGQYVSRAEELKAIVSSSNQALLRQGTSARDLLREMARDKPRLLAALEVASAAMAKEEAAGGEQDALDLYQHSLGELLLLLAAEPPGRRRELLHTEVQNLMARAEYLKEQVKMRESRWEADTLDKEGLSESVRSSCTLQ
T37 sequence (P68400 whole entry): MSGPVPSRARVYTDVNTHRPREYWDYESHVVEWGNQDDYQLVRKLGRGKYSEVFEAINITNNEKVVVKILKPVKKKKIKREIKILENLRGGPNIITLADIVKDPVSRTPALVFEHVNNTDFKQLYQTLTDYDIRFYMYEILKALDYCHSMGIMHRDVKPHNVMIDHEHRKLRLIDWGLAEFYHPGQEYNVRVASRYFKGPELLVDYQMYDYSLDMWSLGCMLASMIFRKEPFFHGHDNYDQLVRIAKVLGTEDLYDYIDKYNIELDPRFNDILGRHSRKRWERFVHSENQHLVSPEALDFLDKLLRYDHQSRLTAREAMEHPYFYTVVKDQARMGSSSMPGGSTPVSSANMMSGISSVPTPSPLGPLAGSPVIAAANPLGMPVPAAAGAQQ
T31 sequence (P42680 whole entry): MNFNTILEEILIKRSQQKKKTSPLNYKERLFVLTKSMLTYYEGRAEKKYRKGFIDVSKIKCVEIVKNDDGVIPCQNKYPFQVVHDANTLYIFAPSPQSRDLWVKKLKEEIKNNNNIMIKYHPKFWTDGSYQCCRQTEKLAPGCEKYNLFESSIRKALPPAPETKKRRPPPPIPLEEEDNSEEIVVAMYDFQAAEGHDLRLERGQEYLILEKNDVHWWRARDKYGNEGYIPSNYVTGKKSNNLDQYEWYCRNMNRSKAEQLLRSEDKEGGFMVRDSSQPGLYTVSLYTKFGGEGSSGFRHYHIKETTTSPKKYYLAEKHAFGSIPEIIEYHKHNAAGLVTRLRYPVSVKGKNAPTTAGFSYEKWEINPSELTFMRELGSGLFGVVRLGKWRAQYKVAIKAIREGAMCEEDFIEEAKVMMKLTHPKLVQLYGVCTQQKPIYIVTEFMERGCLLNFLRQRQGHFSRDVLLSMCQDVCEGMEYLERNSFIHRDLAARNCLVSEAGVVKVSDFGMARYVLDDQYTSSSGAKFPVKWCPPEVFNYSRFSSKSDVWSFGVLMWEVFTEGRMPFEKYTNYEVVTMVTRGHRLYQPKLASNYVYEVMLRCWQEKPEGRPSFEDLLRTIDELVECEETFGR
T16 sequence (P35590 22-1138): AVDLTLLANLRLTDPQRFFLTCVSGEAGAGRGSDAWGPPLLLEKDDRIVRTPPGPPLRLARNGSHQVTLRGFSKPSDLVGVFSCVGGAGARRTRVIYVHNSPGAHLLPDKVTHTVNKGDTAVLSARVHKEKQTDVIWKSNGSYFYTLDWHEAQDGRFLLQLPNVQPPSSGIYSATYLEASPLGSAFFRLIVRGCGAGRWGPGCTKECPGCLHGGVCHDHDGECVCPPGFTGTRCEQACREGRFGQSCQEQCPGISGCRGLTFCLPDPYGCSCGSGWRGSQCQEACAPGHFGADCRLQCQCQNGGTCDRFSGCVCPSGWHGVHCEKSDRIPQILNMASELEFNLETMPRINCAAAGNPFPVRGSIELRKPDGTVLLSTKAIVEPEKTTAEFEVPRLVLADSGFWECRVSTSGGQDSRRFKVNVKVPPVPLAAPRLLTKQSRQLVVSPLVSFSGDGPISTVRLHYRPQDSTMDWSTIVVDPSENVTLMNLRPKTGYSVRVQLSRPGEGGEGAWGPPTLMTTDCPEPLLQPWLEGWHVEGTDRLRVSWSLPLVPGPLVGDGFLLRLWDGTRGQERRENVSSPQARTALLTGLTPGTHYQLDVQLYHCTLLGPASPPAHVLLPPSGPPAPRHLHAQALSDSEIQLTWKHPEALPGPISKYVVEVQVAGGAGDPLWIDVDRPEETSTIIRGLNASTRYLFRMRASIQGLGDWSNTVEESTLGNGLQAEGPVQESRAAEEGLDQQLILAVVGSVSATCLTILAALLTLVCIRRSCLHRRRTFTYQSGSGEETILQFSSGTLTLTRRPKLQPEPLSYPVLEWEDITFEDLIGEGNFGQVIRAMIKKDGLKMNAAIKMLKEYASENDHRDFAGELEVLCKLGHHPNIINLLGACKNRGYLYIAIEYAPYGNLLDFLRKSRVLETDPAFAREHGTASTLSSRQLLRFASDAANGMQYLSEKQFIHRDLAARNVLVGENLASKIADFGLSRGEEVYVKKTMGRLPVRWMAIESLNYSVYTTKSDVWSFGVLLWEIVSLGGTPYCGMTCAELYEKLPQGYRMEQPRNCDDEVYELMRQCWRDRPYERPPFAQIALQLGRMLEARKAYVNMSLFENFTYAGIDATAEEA
T18 sequence (O43293 whole entry): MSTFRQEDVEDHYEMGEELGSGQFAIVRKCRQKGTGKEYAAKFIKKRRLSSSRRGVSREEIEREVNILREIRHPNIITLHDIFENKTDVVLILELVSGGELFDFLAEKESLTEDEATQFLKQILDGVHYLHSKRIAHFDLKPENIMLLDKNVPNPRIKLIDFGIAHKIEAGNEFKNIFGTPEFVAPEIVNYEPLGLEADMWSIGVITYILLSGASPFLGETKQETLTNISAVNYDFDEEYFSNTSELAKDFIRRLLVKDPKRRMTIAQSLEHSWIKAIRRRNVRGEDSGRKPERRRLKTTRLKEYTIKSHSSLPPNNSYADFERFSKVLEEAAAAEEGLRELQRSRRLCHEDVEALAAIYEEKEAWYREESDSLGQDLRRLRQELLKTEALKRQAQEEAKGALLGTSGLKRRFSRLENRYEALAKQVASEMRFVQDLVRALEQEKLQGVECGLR
T27 sequence (Q9NSY1 whole entry): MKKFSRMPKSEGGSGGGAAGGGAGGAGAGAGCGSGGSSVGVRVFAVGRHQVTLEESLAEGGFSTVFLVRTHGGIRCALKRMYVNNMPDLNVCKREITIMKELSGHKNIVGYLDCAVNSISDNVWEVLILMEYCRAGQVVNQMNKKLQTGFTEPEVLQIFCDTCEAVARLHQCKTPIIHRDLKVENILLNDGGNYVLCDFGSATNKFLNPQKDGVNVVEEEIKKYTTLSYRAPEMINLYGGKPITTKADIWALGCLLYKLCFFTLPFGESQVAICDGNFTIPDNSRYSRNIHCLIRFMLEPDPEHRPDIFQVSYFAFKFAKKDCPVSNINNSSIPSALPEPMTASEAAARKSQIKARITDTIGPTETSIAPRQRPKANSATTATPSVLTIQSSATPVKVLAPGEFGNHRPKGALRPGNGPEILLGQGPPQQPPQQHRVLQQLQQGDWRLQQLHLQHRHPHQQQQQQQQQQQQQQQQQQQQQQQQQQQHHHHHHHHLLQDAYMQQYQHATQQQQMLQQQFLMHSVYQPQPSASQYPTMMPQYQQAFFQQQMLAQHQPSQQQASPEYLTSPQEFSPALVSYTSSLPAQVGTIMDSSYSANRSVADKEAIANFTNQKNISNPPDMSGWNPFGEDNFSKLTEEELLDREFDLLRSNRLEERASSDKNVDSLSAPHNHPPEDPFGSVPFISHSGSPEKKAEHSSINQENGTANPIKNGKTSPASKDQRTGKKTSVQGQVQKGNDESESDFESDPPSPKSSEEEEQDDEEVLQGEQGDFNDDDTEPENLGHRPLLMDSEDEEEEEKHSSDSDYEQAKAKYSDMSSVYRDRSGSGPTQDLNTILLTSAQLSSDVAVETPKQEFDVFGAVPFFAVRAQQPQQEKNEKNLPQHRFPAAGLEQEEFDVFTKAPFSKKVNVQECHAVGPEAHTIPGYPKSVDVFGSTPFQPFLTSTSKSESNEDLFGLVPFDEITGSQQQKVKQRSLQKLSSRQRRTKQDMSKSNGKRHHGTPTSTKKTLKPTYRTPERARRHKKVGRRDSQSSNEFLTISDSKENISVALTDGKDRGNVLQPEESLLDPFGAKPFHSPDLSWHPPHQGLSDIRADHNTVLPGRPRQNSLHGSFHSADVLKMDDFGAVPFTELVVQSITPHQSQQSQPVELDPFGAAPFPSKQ

**Q.** What does the source list for `Fc1ccc(-c2c(-c3ccncc3)[nH]c3nccnc23)cc1` [RO1155697-000-005]?
**A.** inhibition at 10 µM (ABL1(T315I)): < 50%; inhibition at 10 µM (KIT(D816V)): < 50%; inhibition at 10 µM (RIPK1): < 50%; inhibition at 10 µM (CDC2L1): 91%; inhibition at 10 µM (TYRO3): < 50%; inhibition at 10 µM (PIP5K1A): < 50%; inhibition at 10 µM (GCN2(Kin.Dom.2,S808G)): < 50%; inhibition at 10 µM (TIE2): < 50%; inhibition at 10 µM (TNK1): < 50%; inhibition at 10 µM (SRPK2): < 50%; inhibition at 10 µM (AMPK-alpha2): < 50%; inhibition at 10 µM (TRKC): < 50%; Percent Competition (ITK): <50%; inhibition at 10 µM (ABL1(F317I)): < 50%; Percent Competition (BMPR2): <50%; inhibition at 10 µM (TIE1): < 50%; inhibition at 10 µM (MST2): < 50%; inhibition at 10 µM (DAPK3): < 50%; inhibition at 10 µM (PIP5K2B): < 50%; inhibition at 10 µM (TRKB): < 50%; inhibition at 10 µM (ZAK): < 50%; inhibition at 10 µM (FGR): < 50%; inhibition at 10 µM (INSR): < 50%; inhibition at 10 µM (BRSK2): < 50%; inhibition at 10 µM (ANKK1): < 50%; inhibition at 10 µM (FGFR4): < 50%; inhibition at 10 µM (BIKE): < 50%; inhibition at 10 µM (MEK1): < 50%; inhibition at 10 µM (PLK1): < 50%; inhibition at 10 µM (FAK): < 50%; inhibition at 10 µM (TEC): < 50%; inhibition at 10 µM (IKK-beta): < 50%; Percent Competition (ULK3): <50%; inhibition at 10 µM (KIT(V559D,T670I)): < 50%; inhibition at 10 µM (BLK): < 50%; inhibition at 10 µM (AAK1): < 50%; inhibition at 10 µM (CSNK2A1): < 50%; inhibition at 10 µM [1]: < 50%; inhibition at 10 µM (SgK110): < 50%; inhibition at 10 µM (SgK085): < 50%
